Data from patent publication US20200078468A1, “NEUROTENSIN RECEPTOR BINDING CONJUGATES AND FORMULATIONS THEREOF” (priority 2016, published 2020).

Test system: SW48 (human colon cancer cells)
Test: inhibition of SW48 cell proliferation (CellTiter Glo)
Format: cell-based
Conditions: NTSR1 scrambled compound; 72 hrs; read-out: SW-48 proliferation IC50
Experimental: Conjugates were assessed in an in vitro assay evaluating inhibition of cell proliferation. SW48 (human colon cancer cells, ATCC®), cells were plated in 96 well, flat-bottomed plates (Costar) at a concentration of 5,000 cells/well. Cells were then incubated at 37° C. with 5% CO2 for 24 hrs. After 24 hrs, cells were treated with 0.01% DMSO or compound. Compounds were added at a starting dose of 10 μM and three fold serial dilutions were done for a total often points. Following compound addition, cells were incubated at 37° C. with 5% CO2 for 72 hrs. Proliferation was measured by CellTiter Glo reagent using the standard protocol (Promega) and a Glomax multi+detection system (Promega). Percent proliferation inhibition was calculated using the following formula: % inhibition=(control−treatment)/control*100. Control is defined as vehicle alone. IC50 curves were generated using the nonlinear regression analysis (four parameter) with GraphPad Prism 6.
Conjugates are assessed for receptor-dependent cytotoxicity by the difference between an NTSR1-targeting conjugate, and the corresponding conjugate with the same linker moiety and active agent where the NTSR1-targeting domain has been scrambled.

| Structure (SMILES) | IC50 [nM] |
| --- | --- |
| CC[C@H](C)[C@@H]([C@@H](CC(=O)N1CCC[C@H]1[C@H](OC)[C@@H](C)C(=O)N[C@H](C)[C@@H](O)c1ccccc1)OC)N(C)C(=O)[C@@H](NC(=O)[C@H](C(C)C)N(C)C(=O)OCc1ccc(NC(=O)[C@H](CCCNC(N)=O)NC(=O)[C@@H](NC(=O)CCCCCN2C(=O)CC(SCCC(=O)NCCOCCOCCOCCOCCC(=O)NCCCC[C@H](NC(C)=O)C(=O)N3CCC[C@H]3C(=O)N[C@@H](CC(C)C)C(=O)N3CCC[C@H]3C(=O)N(C)[C@@H](CCCNC(=N)N)C(=O)N[C@H](C(=O)N[C@@H](CCCNC(=N)N)C(=O)N[C@@H](Cc3ccc(O)cc3)C(=O)O)C(C)(C)C)C2=O)C(C)C)cc1)C(C)C (some centres unmarked) [Compound 95] | 60.1 |
| CC[C@H](C)[C@@H]([C@@H](CC(=O)N1CCC[C@H]1[C@H](OC)[C@@H](C)C(=O)N[C@H](C)[C@@H](O)c1ccccc1)OC)N(C)C(=O)[C@@H](NC(=O)[C@H](C(C)C)N(C)C(=O)OCc1ccc(NC(=O)[C@H](CCCNC(N)=O)CC(=O)[C@@H](NC(=O)CCCCCN2C(=O)CC(SCCC(=O)NCCOCCOCCOCCOCCOCCOCCOCCOCCC(=O)NCCCC[C@H](NC(C)=O)C(=O)N3CCC[C@H]3C(=O)N[C@@H](CC(C)C)C(=O)N3CCC[C@H]3C(=O)N(C)[C@@H](CCCNC(=N)N)C(=O)N[C@H](C(=O)N[C@@H](CCCNC(=N)N)C(=O)N[C@@H](Cc3ccc(O)cc3)C(=O)O)C(C)(C)C)C2=O)C(C)C)cc1)C(C)C (some centres unmarked) [Compound 96] | 76.7 |
| CCc1c2c(nc3ccc(O)cc13)-c1cc3c(c(=O)n1C2)COC(=O)[C@@]3(CC)OC(=O)OCCSSC(C)(C)[C@H](NC(C)=O)C(=O)N1CCC[C@H]1C(=O)N[C@@H](CC(C)C)C(=O)N1CCC[C@H]1C(=O)N[C@@H](CCCNC(=N)N)C(=O)N[C@H](C(=O)N[C@@H](CCCNC(=N)N)C(=O)N[C@@H](Cc1ccc(O)cc1)C(=O)O)C(C)(C)C [Compound 97] | 122 |
| CCc1c2c(nc3ccc(O)cc13)-c1cc3c(c(=O)n1C2)COC(=O)[C@@]3(CC)OC(=O)OCc1ccc(NC(=O)[C@H](CCCNC(N)=O)NC(=O)[C@@H](NC(=O)CCCCCN2C(=O)CC(SC(C)(C)[C@H](NC(C)=O)C(=O)N3CCC[C@H]3C(=O)N[C@@H](CC(C)C)C(=O)N3CCC[C@H]3C(=O)N[C@@H](CCCNC(=N)N)C(=O)N[C@H](C(=O)N[C@@H](CCCNC(=N)N)C(=O)N[C@@H](Cc3ccc(O)cc3)C(=O)O)C(C)(C)C)C2=O)C(C)C)cc1 (some centres unmarked) [Compound 98] | 61 |
| CCc1c2c(nc3ccc(O)cc13)-c1cc3c(c(=O)n1C2)COC(=O)[C@@]3(CC)OC(=O)CNC(=O)CNC(=O)[C@H](CC(C)C)NC(=O)[C@H](Cc1ccccc1)NC(=O)CNC(=O)CCCCCN1C(=O)CC(SC(C)(C)[C@H](NC(C)=O)C(=O)N2CCC[C@H]2C(=O)N[C@@H](CC(C)C)C(=O)N2CCC[C@H]2C(=O)N[C@@H](CCCNC(=N)N)C(=O)N[C@H](C(=O)N[C@@H](CCCNC(=N)N)C(=O)N[C@@H](Cc2ccc(O)cc2)C(=O)O)C(C)(C)C)C1=O (some centres unmarked) [Compound 99] | 784 |
